Test results as given in patent EP0101412A2, “Anthelmintics” (CIBA-GEIGY AG, priority 1982, dated 1984).
Values joined by “and” are separate entries in the source; they are usually repeats but may differ in a detail not shown here. Identical values can stand only once.

Tested on: Fasciola hepatica
Assay: Trial in sheep artificially infected with Fasciola hepatica (faecal egg counts and adult helminth counts at necropsy)
Format: in vivo, Schafe
Conditions: for adulte Helminthen Mittelwert: group mean of 4 sheep; for EPG 12. Woche / EPG 13. Woche / adulte Helminthen Anzahl: sheep, individual animals; for EPG 12. Woche: 12th week after infection; for EPG 13. Woche: 13th week after infection; for adulte Helminthen Anzahl: at necropsy; for adulte Helminthen Reduktion in %: versus untreated control animals
Description: Versuch an mit Fasciola hepatica und Nematoden […] von Fasciola hepatica infiziert. Zu diesem Zweck […] in einer wässrigen 0,4%igen Suspension von Carboxymethylcellulose direkt in den Rumen […] oral mit je 10.000 bzw. 5.000 […] 3) von […] Trichostrongylus colubriformis und Haemonchus contortus infiziert. Für die Medikierung wurden die Versuchstiere in gleichgrossen Gruppen und in […], in denen der Anteil von Wirkstoff der Formel 1 2-5 mg/kg und der Anteil Wirkstoff der Formel II 3-7 mg/kg betrugen, an die […] in Gehegeboxen unter Normalbedingungen gehalten. Zur […] in bestimmten Zeitinvervallen nach Infizierung und Medikierung die mit dem Kot […] und die […]. Die erhaltenen Resultate […] und der Kontrollgruppen wurden für die Auswertung verglichen. Indikation: Fasciola hepatica […]): 19

## CSc1nc2cc(Cl)c(Oc3cccc(Cl)c3Cl)cc2[nH]1 [Substanz I, 5-Chlor-6-(2',3'-dichlorphenoxy)-2-methylthiobenzimidazol]
I 2,5 mg/kg
  adulte Helminthen Mittelwert: 48,5
  EPG 12. Woche: 210 Eier pro gr Faeces and 160 Eier pro gr Faeces and 120 Eier pro gr Faeces and 20 Eier pro gr Faeces
  EPG 13. Woche: 130 Eier pro gr Faeces and 160 Eier pro gr Faeces and 180 Eier pro gr Faeces and 15 Eier pro gr Faeces
  adulte Helminthen Anzahl: 58 and 65 and 51 and 20
  adulte Helminthen Reduktion in %: 52,7%

## c1ccc([C@H]2CN3CCSC3=N2)cc1 [Substanz II, L-(-)-2,3,5,6-Tetrahydro-6-phenylimidazo[2,1-b]-thiazol]
II 6,75 mg/kg
  adulte Helminthen Mittelwert: 92,8
  EPG 12. Woche: 225 Eier pro gr Faeces and 990 Eier pro gr Faeces and 160 Eier pro gr Faeces and 226 Eier pro gr Faeces
  EPG 13. Woche: 810 Eier pro gr Faeces and 1140 Eier pro gr Faeces and 250 Eier pro gr Faeces (2×)
  adulte Helminthen Anzahl: 103 and 108 and 71 and 89
  adulte Helminthen Reduktion in %: 9,6%
